Data published in patent publication US20170305912A1, “PROCESS FOR THE PREPARATION OF 3-PHENYL/HETEROARYL-6-PHENOXY-8-ALKYLAMINO-IMIDAZO[1,2-B]PYRIDAZINE DERIVATIVES” (Bayer Pharma Aktiengesellschaft, priority 2014, published 2017).

Assay: Particle size distribution in a dry dispersion (Sympatec Helos, method AM-PE 69)
Assay type: physicochemical
Settings: cumulative undersize distribution by volume
Procedure: It turned out that the crystalline form of N-cyclopropyl-4-{6-(2,3-difluor-4-methoxyphenoxy)-8-[(3,3,3-trifluorpropyl)amino]imidazo[1,2-b]pyridazin-3-yl}-2-methylbenzamide prepared by the method of the present invention comprising steps (a) to (g), supra, is characterized by an advantageous particle size distribution. […] The particle size distribution was determined in a dry dispersion using the device “Sympatec Helos” and the method “AM-PE 69” (Pharmdoss).
Batch Nos. 1 to 5 were prepared by the method of the present invention comprising steps (a) to (c), supra. In case of Batch Nos. 2 to 5, the preparation method comprised the additional steps (d) to (g) (in case of Batch No. 1 steps (d) to (g) were not applied).
It can be clearly seen that the particles of Batch Nos. 2 to 5 are smaller than the particles of Batch No. 1 and the distribution is more uniform. In case of Batch Nos. 2 to 5, further micronization of the particles might not be necessary in order to increase the solubility or bioavailability of the final drug.

[1] = listed as 2, prepared with steps (d) to (g)
[2] = prepared without steps (d) to (g)
[3] = listed as 4, prepared with steps (d) to (g)
[4] = listed as 5, prepared with steps (d) to (g)

6,8-Bis(2,3-difluoro-4-methoxyphenoxy)-3-iodoimidazo[1,2-b]pyridazine [Example 1]
X10 (particle size distribution) [1]: 1.4 μm | X50 (particle size distribution) [1]: 5.3 μm | X90 (particle size distribution) [1]: 36.1 μm | X10 (particle size distribution) [2]: 2.0 μm | X50 (particle size distribution) [2]: 18.2 μm | X90 (particle size distribution) [2]: 249.0 μm

COc1ccc(Oc2cc(Oc3ccc(OC)c(F)c3F)c3ncc(-c4ccc(C(=O)NC5CC5)c(C)c4)n3n2)c(F)c1F [Example 3, 4-[6,8-bis(2,3-difluoro-4-methoxyphenoxy)imidazo[1,2-b]pyridazin-3-yl]-N-cyclopropyl-2-methylbenzamide]
X10 (particle size distribution) [3]: 1.3 μm | X50 (particle size distribution) [3]: 4.2 μm | X90 (particle size distribution) [3]: 13.2 μm | X10 (particle size distribution) [4]: 1.2 μm | X50 (particle size distribution) [4]: 4.0 μm | X90 (particle size distribution) [4]: 12.4 μm | X10 (particle size distribution) (prepared with steps (d) to (g)): 1.2 μm | X50 (particle size distribution) (prepared with steps (d) to (g)): 4.1 μm | X90 (particle size distribution) (prepared with steps (d) to (g)): 9.9 μm
